Data from patent US20040010001A1, “Methods and compositions for modulating cell proliferation and cell death” (priority 1999, published 2004).
Counter-ions that a name gives are not always drawn. Like-named read-outs stand apart in the source and are kept apart here.

Test system: Human prostate PC3 tumor cells
Test: aFGF/bFGF-induced resistance and reversal by suramin, sulforhodamine B assay
Type: cell-based
Protocol: The experimental conditions are described briefly below. […] Cell number was measured using the sulforhodamine B assay which measures the total protein concentration. […] The FGF-induced resistance was dependent on the FGF concentrations, with a higher resistance at higher FGF concentrations.

[1] = Homo sapiens, read-out: IC50, Control (drug treatment only, without FGF treatment), No suramin, drug 96 hours
[2] = Homo sapiens, read-out: IC50, aFGF 0.3 ng/ml + bFGF 1 ng/ml, No suramin, FGF pretreatment 96 hours, drug 96 hours
[3] = Homo sapiens, read-out: IC50, aFGF 1 ng/ml + bFGF 3 ng/ml, No suramin, FGF pretreatment 96 hours, drug 96 hours
[4] = no suramin, relative to control
[5] = read-out: IC50, Control (without FGF treatment), Suramin, 15 μM, drug 96 hours with 15 μM suramin
[6] = read-out: IC50, aFGF 0.3 ng/ml + bFGF 1 ng/ml, With suramin, FGF pretreatment 96 hours, drug 96 hours with 15 micromolar suramin
[7] = read-out: IC50, aFGF 1 ng/ml + bFGF 3 ng/ml, With suramin, FGF pretreatment 96 hours, drug 96 hours with 15 micromolar suramin
[8] = read-out: IC50, Control (drug treatment only, without FGF treatment), No suramin, drug 96 hours
[9] = read-out: IC50, aFGF 0.3 ng/ml + bFGF 1 ng/ml, No suramin, FGF pretreatment 96 hours, drug 96 hours
[10] = read-out: IC50, aFGF 1 ng/ml + bFGF 3 ng/ml, No suramin, FGF pretreatment 96 hours, drug 96 hours
[11] = Homo sapiens, 96 h, read-out: IC50, Control (drug treatment only, without FGF treatment), No suramin
[12] = Homo sapiens, 96 h, read-out: IC50, aFGF 0.3 ng/ml + bFGF 1 ng/ml, No suramin
[13] = Homo sapiens, 96 h, read-out: IC50, aFGF 1 ng/ml + bFGF 3 ng/ml, No suramin
[14] = read-out: IC50, Control (without FGF treatment), Suramin, 15 μM
[15] = read-out: IC50, aFGF 0.3 ng/ml + bFGF 1 ng/ml, With suramin
[16] = read-out: IC50, aFGF 1 ng/ml + bFGF 3 ng/ml, With suramin

Compound	IC50 [1] [µM]	IC50 [2] [µM]	IC50 [3] [µM]	Resistance, Folds, aFGF 0.3 ng/ml + bFGF 1 ng/ml [4] [Folds]	Resistance, Folds, aFGF 1 ng/ml + bFGF 3 ng/ml [4] [Folds]	IC50 [5] [µM]	IC50 [6] [µM]	IC50 [7] [µM]	IC50 [8] [µM]	IC50 [9] [µM]	IC50 [10] [µM]	Resistance, Folds, aFGF 0.3 ng/ml + bFGF 1 ng/ml [Folds]	Resistance, Folds, aFGF 1 ng/ml + bFGF 3 ng/ml [Folds]	IC50 [11] [µM]	IC50 [12] [µM]	IC50 [13] [µM]	IC50 [14] [µM]	IC50 [15] [µM]	IC50 [16] [µM]
COc1cc([C@@H]2c3cc4c(cc3[C@@H](O[C@@H]3O[C@@H]5CO[C@@H](C)O[C@H]5[C@H](O)[C@H]3O)[C@H]3COC(=O)[C@H]23)OCO4)cc(OC)c1O [Etoposide]	1.84	2.34	3.4	1.27	1.85	1.75	1.6	1.61											
O=c1[nH]c(=O)n([C@@H]2O[C@H](CO)[C@@H](O)[C@H]2O)cc1F [5-Fluorouridine]	0.28	0.44	0.7	1.57	2.50		0.33	0.29											
CC(=O)[C@]1(O)Cc2c(O)c3c(c(O)c2[C@@H](O[C@H]2C[C@H](N)[C@H](O)[C@H](C)O2)C1)C(=O)c1ccccc1C3=O [Idarubicin]	0.00445	0.0119	0.0312	2.67	7.01	0.00505		0.0043											
O=c1[nH]c(=O)n([C@H]2C[C@H](O)[C@@H](CO)O2)cc1F [5-fluorodoeoxyuridine]	0.00588	0.00903	0.0123	1.54	2.09	0.00711	0.0066	0.00575											
COc1cc(NCc2ccc3nc(N)nc(N)c3c2C)cc(OC)c1OC [Trimetrexate]	0.0336	0.054	0.0959	1.61	2.85	0.0331	0.0306	0.0289											
CN(C)/N=N/c1[nH]cnc1C(N)=O [Dacarbazine]	36.6	53.7	108	1.47	2.95	37.6	32.4	39.7											
NCCCNc1ccc2c3c(nn2CCNCCO)-c2c(O)ccc(O)c2C(=O)c13 [Piroxantrone Hydrochloride]	0.34	0.81	1.28	2.38	3.77	0.32	0.33	0.28											
CC[C@]1(O)C[C@H]2CN(CCc3c([nH]c4ccccc34)[C@@](C(=O)OC)(c3cc4c(cc3OC)N(C=O)[C@H]3[C@@](O)(C(=O)OC)[C@H](OC(C)=O)[C@]5(CC)C=CCN6CC[C@]43[C@@H]65)C2)C1 [Vincristine]	0.00658			4.00	6.77	0.00682													
O=C1NC(=S)NC(=O)C1C(=O)Nc1ccccc1 [Merbarone]	23	46.7	80.8	1.67	2.89	28.6	24.9	29.4											
NC(=O)c1csc([C@@H]2O[C@H](CO)[C@@H](O)[C@H]2O)n1 [Tiazofurin]	7.5	14.6	19.2	1.94	2.57	7.9	7.25	6.15											
NC(=O)c1[nH]nc([C@@H]2O[C@H](CO)[C@@H](O)[C@H]2O)c1O [Pyrazofurin]	3.38	4.07	11.1	1.20	3.27	3.83	3.65	3.8											
COc1cccc2c1C(=O)c1c(O)c3c(c(O)c1C2=O)C[C@@](O)(C(C)=O)C[C@@H]3O[C@H]1C[C@H](N)[C@H](O)[C@H](C)O1 [Daunorubicin]	0.0295	0.0974	0.157	3.31	5.33	0.0291	0.0265	0.0302											
Nc1ncnc2c1ncn2[C@@H]1O[C@H](CO)[C@@H](O)[C@@H]1O [Adenosine arabinoside (Ara-A), Adenosine arabinoside]				1.56	2.13	22.7	19	21	21.5	33.6	45.7								
O=P1(N(CCCl)CCCl)NCCCO1 (stereo not shown) [Cyclophosphamide]												2.18	3.00	0.51	1.11	1.53	0.48	0.57	0.5
O=C1NC2(CCCCC2)C(=O)N1CCN(CCCl)CCCl [Spiromustine]												2.15	3.46	25.3	54.5	87.6	24.4	25.4	26.7
COc1cc([C@@H]2c3cc4c(cc3[C@@H](O[C@@H]3O[C@@H]5CO[C@@H](c6cccs6)O[C@H]5[C@H](O)[C@H]3O)[C@H]3COC(=O)[C@H]23)OCO4)cc(OC)c1O [Teniposide]	0.4	1.14	1.98	2.85	4.95	0.42	0.39	0.36											
N.N.O=C([O-])C1(C(=O)[O-])CCC1.[Pt+2] [Carboplatin]				1.68	4.04	2.11	2.29	2.31	2.25	3.79	9.1								
Nc1nc(Cl)nc2c1ncn2[C@H]1C[C@H](O)[C@@H](CO)O1 [Cladribine]	0.35	0.46	0.65	1.31	1.86	0.36		0.34											
O=P1(NCCCl)OCCCN1CCCl (stereo not shown) [Ifosfamide]	2.66	5.01	8.12	1.88	3.05	2.23	2.22	2.55											
